Tests used:
Conditions in all cases: 72 h
[1] = test system: Caco-2; test: cell viability relative to DMSO; higher = less toxic
[2] = test system: Calu-3; test: as above
[3] = test system: HepG2; test: as above
[4] = test system: U2OS; test: as above
[5] = test system: Vero E6; test: as above
[6] = test system: Calu-3; test: relative viability EC50 (midpoint between 100% and the lowest measured viability); higher = less toxic
[7] = test system: HepG2; test: as above
[8] = test system: U2OS; test: as above
[9] = test system: Vero E6; test: as above
[10] = test system: Caco-2; test: drug sensitivity score (DSS) for viability; higher = more toxic; extreme values may be limits of the assay
[11] = test system: Calu-3; test: as above
[12] = test system: HepG2; test: as above
[13] = test system: U2OS; test: as above
[14] = test system: Vero E6; test: as above
[15] = test system: Caco-2; test: relative viability EC50 (midpoint between 100% and the lowest measured viability); higher = less toxic

| SMILES | cell viability ([1]; 1 nM) | cell viability ([1]; 10 nM) | cell viability ([1]; 100 nM) | cell viability ([1]; 1000 nM) | cell viability ([1]; 10000 nM) | cell viability ([2]; 1 nM) | cell viability ([2]; 10 nM) | cell viability ([2]; 100 nM) | cell viability ([2]; 1000 nM) | cell viability ([2]; 10000 nM) | cell viability ([3]; 1 nM) | cell viability ([3]; 10 nM) | cell viability ([3]; 100 nM) | cell viability ([3]; 1000 nM) | cell viability ([3]; 10000 nM) | cell viability ([4]; 1 nM) | cell viability ([4]; 10 nM) | cell viability ([4]; 100 nM) | cell viability ([4]; 1000 nM) | cell viability ([4]; 10000 nM) | cell viability ([5]; 1 nM) | cell viability ([5]; 10 nM) | cell viability ([5]; 100 nM) | cell viability ([5]; 1000 nM) | cell viability ([5]; 10000 nM) | relative viability EC50 [6] | relative viability EC50 [7] | relative viability EC50 [8] | relative viability EC50 [9] | drug sensitivity score [10] | drug sensitivity score [11] | drug sensitivity score [12] | drug sensitivity score [13] | drug sensitivity score [14] | relative viability EC50 [15] |
| --- | --- | --- | --- | --- | --- | --- | --- | --- | --- | --- | --- | --- | --- | --- | --- | --- | --- | --- | --- | --- | --- | --- | --- | --- | --- | --- | --- | --- | --- | --- | --- | --- | --- | --- | --- |
| COc1cc2ncnc(Nc3ccc(F)c(Cl)c3)c2cc1NC(=O)/C=C/CN1CCCCC1 [dacomitinib] | 95.3% | 89.6% | 90.6% | 69.3% | 71.2% | 83.5% | 73.7% | 40.8% | 32.1% | 17% | 104% | 97.8% | 91.3% | 97% | 37.8% | 94.3% | 97.3% | 94.5% | 94.7% | 43.6% | 99.6% | 92.7% | 59.5% | 48.2% | 39.5% | 0.027 µM | 2.79 µM | 2.39 µM | 0.0579 µM | 5.6 | 23.8 | 3.8 | 3.9 | 15.8 | – |
| CNC(=O)CN1CCC(Oc2cc3c(Nc4cccc(Cl)c4F)ncnc3cc2OC)CC1 [AZD8931] | 96.5% | 93.7% | 90.2% | 77.7% | 65.5% | 109% | 80.5% | 60.7% | 33.8% | 22.5% | 106% | 95.7% | 87.8% | 95.2% | 85.2% | 95.4% | 94.8% | 93.6% | 89.6% | 87.9% | 97.2% | 97.7% | 78.3% | 58.5% | 42.1% | 0.0843 µM | > 10 µM | > 10 µM | 0.233 µM | 4.6 | 18.2 | 0.5 | 0.1 | 10.2 | – |
| Cc1cc(C)c(N)c(C#Cc2cccc(F)c2)n1 | 99.6% | 88.9% | 101% | 93.2% | 71.6% | 104% | 102% | 95.9% | 102% | 87.7% | 95.3% | 98.4% | 81.6% | 88.1% | 90.7% | 102% | 97.5% | 102% | 97.3% | 90.9% | 99.5% | 106% | 98.6% | 103% | 90.8% | > 10 µM | > 10 µM | > 10 µM | > 10 µM | 2.2 | 0 | 0.7 | 0 | 0 | – |
| CC1=C(CCC(=O)O)c2cc3[nH]c(cc4nc(cc5[nH]c(cc1n2)c(C)c5C(C)O)C(C)=C4C(C)O)c(C)c3CCC(=O)O (stereo not given) [hematoporphyrin] | 109% | 96.3% | 96.6% | 105% | 74.1% | 97.8% | 89% | 87.2% | 94.5% | 88.1% | 103% | 99.9% | 91.3% | 99.1% | 79.2% | 100% | 96.7% | 102% | 93.6% | 94.5% | 106% | 106% | 98.8% | 104% | 80.3% | > 10 µM | > 10 µM | > 10 µM | > 10 µM | 0.8 | 0.6 | 0.8 | 0 | 0.4 | – |
| Cc1ccc2c(c1)=C(c1ccccc1)C(C1=NN(C(=O)CCC(=O)O)C(c3ccc(Br)cc3)C1)C(=O)N=2 (stereo not given) [DQP-1105] | 94.1% | 97.7% | 97.2% | 90.2% | 96.1% | – | – | – | – | – | 106% | 105% | 97.9% | 95.2% | 105% | 102% | 110% | 97.4% | 100% | 94.9% | 95.9% | 100% | 100% | 97.7% | 96.9% | – | > 10 µM | > 10 µM | > 10 µM | 0 | – | 0 | 0 | 0 | > 10 µM |
| OCc1c[nH]c2ccccc12 [indole-3-carbinol] | 103% | 103% | 99% | 97.8% | 87.4% | – | – | – | – | – | 105% | 96% | 99.9% | 88.1% | 101% | 99.9% | 101% | 99.3% | 104% | 93.7% | 104% | 97.1% | 93.1% | 99.2% | 97.5% | – | > 10 µM | > 10 µM | > 10 µM | 0.2 | – | 0 | 0 | 0 | > 10 µM |
| CC12CCC(C(Br)C1=O)C2(C)C (stereo not given) [3-bromocamphor] | 88.5% | 94.3% | 96.6% | 95.2% | 94.8% | – | – | – | – | – | 94.1% | 87.3% | 94.3% | 101% | 104% | 99.6% | 95.1% | 100% | 97.1% | 101% | 91.8% | 102% | 92.2% | 103% | 104% | – | > 10 µM | > 10 µM | > 10 µM | 0 | – | 0 | 0 | 0 | > 10 µM |
| Nc1ccc2cc3ccc(N)cc3nc2c1 [proflavine-hemisulfate] | 100% | 88.4% | 99% | 105% | 49.3% | 89.2% | 95.9% | 103% | 103% | 62.6% | 96.5% | 103% | 92.7% | 76.2% | 2% | – | – | – | – | – | 94.6% | 100% | 90.7% | 89.4% | 35.8% | – | 1.57 µM | – | 1.9 µM | 2.3 | 1.6 | 9.1 | – | 5.3 | 3.6 µM |
| CC(C)(O)CC(=O)NCCn1ccc2ncnc(Nc3ccc(Oc4cccc(C(F)(F)F)c4)c(Cl)c3)c21 [TAK-285] | 103% | 90.9% | 92.8% | 85% | 70% | 109% | 93.7% | 76.1% | 48.2% | 31% | 106% | 110% | 113% | 105% | 81.1% | 99.1% | 96.2% | 95% | 95.9% | 80.2% | 95.7% | 92.8% | 92.6% | 78.2% | 37.8% | 0.228 µM | > 10 µM | > 10 µM | 1.41 µM | 2.9 | 12.6 | 0.3 | 1 | 5.9 | – |
| COC(=O)C1=C(C)NC(C)=C(C(=O)OC2CCCN(Cc3ccccc3)C2)C1c1cccc([N+](=O)[O-])c1 (stereo not given) [benidipine] | 97.7% | 108% | 101% | 97% | 64.4% | 99% | 98.8% | 106% | 102% | 77.8% | 109% | 101% | 105% | 105% | 80.2% | 100% | 102% | 93.8% | 99.6% | 81.7% | 102% | 101% | 106% | 99% | 104% | > 10 µM | > 10 µM | > 10 µM | > 10 µM | 2.1 | 0.6 | 0.4 | 0.5 | 0 | – |
| CN(CCCN1c2ccccc2CCc2ccccc21)CC(=O)c1ccc(Cl)cc1 [lofepramine] | 103% | 107% | 101% | 94.9% | 92% | – | – | – | – | – | 105% | 105% | 102% | 96.9% | 106% | – | – | – | – | – | 99% | 102% | 97.2% | 101% | 101% | – | > 10 µM | – | > 10 µM | 0 | – | 0 | – | 0 | > 10 µM |
| Nc1nc(NCCc2ccc(O)cc2)nc2nc(-c3ccco3)nn12 | 97.2% | 94.5% | 103% | 104% | 72.5% | 96.1% | 110% | 97.3% | 98.2% | 106% | 109% | 98.6% | 103% | 49.2% | 32.2% | 99.5% | 103% | 102% | 103% | 94.5% | 95.1% | 95.3% | 98.1% | 94.6% | 95% | > 10 µM | 0.648 µM | > 10 µM | > 10 µM | 0.9 | 0 | 9.7 | 0 | 0 | – |
| Cn1c(=O)c(F)c(Nc2ccc(I)cc2F)c2c(=O)n(C[C@@H](O)CO)cnc21 [TAK-733] | 89.4% | 84.6% | 70.7% | 66.4% | 58.7% | 88.5% | 74.4% | 53.3% | 31.8% | 24.6% | 88.1% | 41.2% | 24.8% | 19.5% | 17.2% | 94.5% | 98.7% | 85.9% | 36% | 10.8% | 96.9% | 82.9% | 62.3% | 51.6% | 42.2% | 0.0323 µM | 0.0047 µM | 0.435 µM | 0.042 µM | 11.2 | 21.1 | 33.3 | 13.8 | 15.2 | – |
| O=C1CN2Cc3c(ccc(Cl)c3Cl)N=C2N1 [anagrelide] | 101% | 97.8% | 97.6% | 99.8% | 96.9% | – | – | – | – | – | 101% | 102% | 104% | 101% | 96.7% | – | – | – | – | – | 106% | 107% | 103% | 102% | 99.3% | – | > 10 µM | – | > 10 µM | 0 | – | 0 | – | 0 | > 10 µM |
